Assay [1] relates to NCI-H1650. Kind of assay: Antiproliferative activity against human NCI-H1650 cells assessed as inhibition of cell proliferation at 2 uM after 72 hrs by MTT assay relative to control. It is filed as functional. As to conditions: for inhibition at 2 µM: NCI-H1650, 72 h.
The species entered for assay [2] is Sus scrofa. The experiment in a line: Inhibition of porcine PDK1 assessed as activation of pyruvate dehydrogenase complex at 1 uM measured after 3 mins.
Assay [3] deals with [Pyruvate dehydrogenase (acetyl-transferring)] kinase isozyme 1, mitochondrial (Homo sapiens, UniProt Q15118). Kind of assay: Inhibition of recombinant human N-terminal His6/Sumo-tagged PDK1 (29 to 436 residues) expressed in Escherichia coli BL21 at 1 uM by kinase-glo luminescence assay relative to control. For orientation: In Kinase-Glo more light means more ATP remaining.
The subject of assay [4] is NCI-H1975. The experiment in a line: Antiproliferative activity against human NCI-H1975 cells assessed as inhibition of cell proliferation at 2 uM after 72 hrs by MTT assay relative to control. It is filed as functional. As to conditions: for inhibition at 2 µM: NCI-H1975, 72 h. Background: Tetrazolium dyes change colour on reduction, which living cells bring about.
Assay [5] concerns A549. The experiment in a line: Antiproliferative activity against human A549 cells assessed as inhibition of cell proliferation at 6 uM after 72 hrs by MTT assay relative to control. Particulars: for inhibition at 6 µM: A549, 72 h. Format: functional.
In assay [6] the test system is NCI-H1975. Kind of assay: Antiproliferative activity against human NCI-H1975 cells assessed as inhibition of cell proliferation at 6 uM after 72 hrs by MTT assay relative to control. It is filed as functional. Particulars: for inhibition at 6 µM: NCI-H1975, 72 h.
In assay [7] the test system is NCI-H1650. The experiment in a line: Antiproliferative activity against human NCI-H1650 cells assessed as inhibition of cell proliferation at 12 uM after 72 hrs by MTT assay relative to control. Format: functional. Particulars: for inhibition at 12 µM: NCI-H1650, 72 h.
In assay [8] the test system is A549. Kind of assay: Antiproliferative activity against human A549 cells assessed as inhibition of cell proliferation at 2 uM after 72 hrs by MTT assay relative to control. It is filed as functional. As to conditions: for inhibition at 2 µM: A549, 72 h.
Assay [9] has as its system A549. The experiment in a line: Antiproliferative activity against human A549 cells assessed as inhibition of cell proliferation at 12 uM after 72 hrs by MTT assay relative to control. It is filed as functional. Particulars: for inhibition at 12 µM: A549, 72 h.
In assay [10] the test system is NCI-H1975. The experiment in a line: Antiproliferative activity against human NCI-H1975 cells assessed as inhibition of cell proliferation at 12 uM after 72 hrs by MTT assay relative to control. Format: functional. As to conditions: for inhibition at 12 µM: NCI-H1975, 72 h.
Assay [11] deals with NCI-H1650. The experiment in a line: Antiproliferative activity against human NCI-H1650 cells assessed as inhibition of cell proliferation at 6 uM after 72 hrs by MTT assay relative to control. Format: functional. As to conditions: for inhibition at 6 µM: NCI-H1650, 72 h.

Activity calls are given as the source filed them. No cut-off for these calls is given here.

With `O=C(c1cccs1)C(Cl)Cl`, the inhibition – broadly, the percentage by which the read-out fell short of the control – at 2 µM in assay [1] was determined as 16.8%; in assay [4], 26.8%; in assay [8], 6.9%. The inhibition in [2] amounted to 3.9%. The inhibition result in assay [3] was “inactive”. Moreover, the figures for the inhibition at 6 µM in assay [5], in [6] and in assay [11] were 34.7%, 62.1% and 42.5%, respectively. In addition, the inhibition at 12 µM stood at 73.4% in [7], 71.1% in assay [9] and 95.8% in assay [10].

In the case of `O=C(Nc1ccccc1)C(Cl)Cl`, the inhibition entry in assay [1], in assay [2], in assay [3], in assay [4] and in assay [8] was “inactive” in each case. In addition, the values for the inhibition at 6 µM in assay [5], in assay [6] and in [11] were 14.6%, 21.6% and 15.5%, respectively. The figures for the inhibition at 12 µM in [7], in assay [9] and in assay [10] were 21.3%, 20.3% and 30.2%, respectively.

Turning to `O=C(c1cccnc1)C(Cl)(Cl)Cl`, the inhibition result in assay [1], in [2], in [3], in assay [4], in assay [5] and in [6] was “inactive” throughout. Besides, the inhibition entry in assay [7], in assay [8], in assay [9], in assay [10] and in assay [11] was “inactive” each time.

`CC(C)Oc1ccc(C(=O)C(Cl)(Cl)Cl)cc1[N+](=O)[O-]`: the inhibition result in assay [1], in assay [4], in [5], in assay [6], in assay [8] and in assay [11] was “inactive” throughout. Besides, the inhibition result in assay [2] and in [3] was “Active” in each case. The results for the inhibition at 12 µM in [7], in assay [9] and in assay [10] were 24.7%, 15.9% and 35.6%, respectively.

As for `CCCCOc1ccc(C(=O)C(Cl)Cl)cc1[N+](=O)[O-]`, the inhibition entry in [1] was “inactive”. The inhibition result in [2] and in assay [3] was “Active” throughout. In addition, the inhibition at 2 µM was found to be 55.7% in assay [4] and 28.3% in assay [8]. Besides, the inhibition at 6 µM was determined as 79.9% in assay [5], 96.3% in assay [6] and 28.8% in [11]. The inhibition at 12 µM came out at 63.1% in [7], 95.2% in [9] and 98.9% in assay [10].

As for `O=C(c1ccc(OCc2ccccc2)c([N+](=O)[O-])c1)C(Cl)Cl`, the inhibition entry in assay [1] is “inactive”. The inhibition entry in assay [2] and in assay [3] was “Active” each time. Also, the inhibition at 2 µM in [4] was found to be 58.4%; in assay [8] it was 29.9%. In addition, the results for the inhibition at 6 µM in assay [5], in assay [6] and in [11] were 87.9%, 98.6% and 29.9%, respectively. Also, the inhibition at 12 µM in [7] amounted to 67.3%; in assay [9] it was 99.3%; in assay [10], 99%.

With `O=C(c1cccnc1)C(Cl)Cl`, the inhibition result in assay [1], in assay [2], in assay [3], in assay [4], in assay [5] and in [8] was “inactive” each time. For the same compound, the inhibition result in [9] was “inactive”. Also, the values for the inhibition at 6 µM in [6] and in assay [11] were 9.3% and 29.1%, respectively. Also, the results for the inhibition at 12 µM in [7] and in assay [10] were 56.5% and 52%, respectively.

For the compound `CCCCCCOc1ccc(C(=O)C(Cl)Cl)cc1[N+](=O)[O-]`, the inhibition at 2 µM in [1] turned out to be 3.6%; in assay [4] it was 5.7%; in [8], 1.2%. Also, the inhibition entry in assay [2] and in assay [3] was “Active” in each case. The inhibition at 6 µM is 33.4% in assay [5], 51.7% in assay [6] and 53.1% in [11]. The inhibition at 12 µM is 99.7% in [7], 83.1% in [9] and 98.3% in assay [10].

Regarding `O=C(c1ccc(OCCCCBr)c([N+](=O)[O-])c1)C(Cl)Cl`, the figures for the inhibition at 2 µM in assay [1], in [4] and in assay [8] were 21.8%, 15% and 5.7%, respectively. The inhibition result in assay [2] and in assay [3] was “Active” each time. The inhibition at 6 µM in assay [5] came out at 33.4%; in assay [6] it was 54.7%; in assay [11] it was 38.8%. The inhibition at 12 µM came out at 66.7% in assay [7], 72.9% in assay [9] and 86.7% in [10].

For `CCCOc1ccc(C(=O)C(Cl)Cl)cc1[N+](=O)[O-]`, the inhibition at 2 µM in [1] was 7.6%; in assay [4] it was 3.4%. The inhibition result in [2] and in assay [3] was “Active” in each case. Further, the inhibition at 6 µM in assay [5] stood at 19.5%; in assay [6], 37.8%; in assay [11], 38%. For the same compound, the inhibition at 12 µM in assay [7] was 99.9%; in [9] it was 68.4%; in assay [10], 91.6%. Further, the inhibition entry in [8] was “inactive”.

Regarding `O=C(c1ccccn1)C(Cl)Cl`, the figures for the inhibition at 2 µM in [1], in [4] and in [8] were 14.8%, 15.9% and 3.3%, respectively. Besides, in [2], the inhibition stood at 10.2%. In addition, in assay [3], the inhibition entry is “inactive”. In addition, the inhibition at 6 µM in assay [5] worked out at 15.3%; in assay [6] it was 73.1%; in assay [11] it was 39.6%. Besides, the inhibition at 12 µM in assay [7] amounted to 90.5%; in assay [9], 31.5%; in [10] it was 98.5%.

For the compound `O=C(CCl)c1cccnc1`, the inhibition result in assay [1], in assay [2], in assay [3], in [4], in assay [5] and in assay [6] was “inactive” each time. In addition, the inhibition entry in assay [7], in assay [8], in assay [9], in assay [10] and in [11] was “inactive” in each case.

For the compound `COc1ccc(C(=O)C(Cl)Cl)cc1[N+](=O)[O-]`, the inhibition at 2 µM in assay [1] worked out at 30%; in assay [4], 22.3%; in [8], 17.7%. The inhibition result in assay [2] and in assay [3] was “Active” each time. The inhibition at 6 µM in assay [5] came out at 46.7%; in assay [6], 89.4%; in assay [11], 75.7%. Also, the inhibition at 12 µM in [7] worked out at 97.2%; in [9], 81.8%; in [10], 97.4%.

Consider `CCCCCOc1ccc(C(=O)C(Cl)Cl)cc1[N+](=O)[O-]`, for which the inhibition entry in [1] was “inactive”. Further, the inhibition result in assay [2] and in assay [3] was “Active” each time. Besides, the results for the inhibition at 2 µM in [4] and in [8] were 62.9% and 32.3%, respectively. Moreover, the figures for the inhibition at 6 µM in assay [5], in [6] and in assay [11] were 80.2%, 93.2% and 36.6%, respectively. The inhibition at 12 µM in assay [7] was determined as 68%; in assay [9], 96.9%; in assay [10], 98.1%.

For `O=C(c1ccc(OCCBr)c([N+](=O)[O-])c1)C(Cl)Cl`, the inhibition entry in [1] and in [11] was “inactive” throughout. Moreover, the inhibition result in assay [2] and in [3] was “Active” throughout. Further, the inhibition at 2 µM in assay [4] turned out to be 15.2%; in assay [8], 9.5%. Besides, the inhibition at 6 µM in [5] stood at 24.5%; in [6], 53.2%. The inhibition at 12 µM in assay [7] was 23%; in assay [9] it was 63.7%; in assay [10] it was 80%.

On to `CCOc1ccc(C(=O)C(Cl)Cl)cc1[N+](=O)[O-]`, for which the figures for the inhibition at 2 µM in assay [1], in [4] and in assay [8] were 57.3%, 62.3% and 37.8%, respectively. The inhibition result in [2] and in assay [3] was “Active” throughout. In addition, the figures for the inhibition at 6 µM in assay [5], in assay [6] and in assay [11] were 88%, 94.1% and 88%, respectively. Further, the inhibition at 12 µM came to 99.3% in assay [7], 99% in [9] and 98.2% in [10].
